How the values were obtained:
[1] = biological target: T1, CDK2/Cyclin E (Homo sapiens, UniProt P24941); assay: CDK2/Cyclin E kinase inhibition, [γ-33P]ATP, histone H1; assay type: biochemical; details: Table 4; read-out: CDK2/E inhibition IC50
T1 construct: made in house; host or cells: Sf9 insect cells (baculovirus)
Method: CDK2/Cyclin E and CDK1/Cyclin B kinases were produced in Sf9 insect cells via baculoviral infection and purified on a Ni-NTA column (Qiagen). CDK4/Cyclin D1, CDK5/p35NCK, CDK7/Cyclin H/MAT1 and CDK9/Cyclin T1 were purchased from ProQinase GmbH. […] The reactions were stopped by adding 5 mL of 3% aq. H3PO4. Aliquots were spotted onto P-81 phosphocellulose (Whatman), washed 3 times with 0.5% aq. H3PO4 and finally air-dried. Kinase inhibition was quantified using a FLA-7000 digital image analyzer (Fujifilm). The concentration of the test compounds required to decrease the CDK activity by 50% was determined from dose response curves and designated as IC50.

[2] = test system: HT (diffuse large B-cell lymphoma, subtype—germinal center B-cell); assay: MTT cytotoxicity assay, HT lymphoma cell line; assay type: cell-based; details: Homo sapiens, 72 h, HT cells, three days, read-out: Lymphoma cell lines GI50, HT
Text: (§1) Cytotoxicity of the compounds is the major property determining their anti-lymphoma efficacy in vitro. One of the parameters used, as the basis for cytotoxicity assays, is the metabolic activity of viable cells. For example 2, a microtiter assay, which uses (3-(4,5-dimethylthiazol-2-yl)-2,5-diphenyltetrazolium bromide (MTT), is widely used to quantitate cell proliferation and cytotoxicity. This assay is widely used in drug screening programs and in chemosensitivity testing. Because only metabolically active living cells reduce MTT to correspond purple formazan dye, these assays detect viable cells exclusively. The quantity of reduced MTT corresponds to the number of vital cells in the culture.
(§2) The compounds were assayed using the following lymphoma cell lines: HT (diffuse large B-cell lymphoma, subtype—germinal center B-cell), OCI-LY2 (diffuse large B-cell lymphoma, subtype—germinal center B-cell), MINO (mantle cell lymphoma). All cell lines were grown in RPMI medium supplemented with fetal bovine serum and glutamine and maintained at 37° C. in a humidified atmosphere with 5% CO2. For cytotoxicity assays, 5000-10000 cells were seeded into each well of 96 well plate, allowed to stabilize for at least 8 h and then tested compounds were added at various concentrations ranging from 100 to 0.01 μM in triplicates. After three days, MTT solution (5 mg/ml; Sigma, St. Louis, USA) was added to cells and medium was replaced with DMSO after five hours. The absorbance was measured at 620 nm by employing a microplate reader. MTT assays were repeated 3 times for each drug application and untreated cells were used as reference. The GI50 values, drug concentrations lethal to 50% of the cells, were calculated from the obtained dose response curves.

[3] = test system: OCI-LY2 (diffuse large B-cell lymphoma, subtype—germinal center B-cell); assay: MTT cytotoxicity assay, OCI-LY2 lymphoma cell line; assay type: cell-based; details: 72 h, OCI-LY2 cells, three days, read-out: Lymphoma cell lines GI50, OCI-LY2
Text: as §1, §2

[4] = test system: MINO (mantle cell lymphoma); assay: MTT cytotoxicity assay, MINO lymphoma cell line; assay type: cell-based; details: Homo sapiens, 72 h, MINO cells, three days, read-out: Lymphoma cell lines GI50, MINO
Text: as §1, §2

Q: CC(C)c1n[nH]c2c(NCc3ccc(-n4ccnc4)cc3)nc(SCCO)nc12 [Compound 4.50, 5-(2-Hydroxy-1-ethyl)thio-3-isopropyl-7-[4-(imidazol-1-yl)benzyl]amino-1(2)H-pyrazolo[4,3-d]pyrimidine] was tested. Which IC50 [1] did it give?
A: 10 nM

Q: With CC(C)c1[nH]nc2c(NCc3ccc(-n4cccn4)cc3)nc(SCCO)nc12 [Compound 4.80, 5-(2-Hydroxy-1-ethyl)thio-3-isopropyl-7-[4-(pyrazol-1-yl)benzyl]amino-1(2)H-pyrazolo[4,3-d]pyrimidin] as the molecule, how does the IC50 [1] read?
A: 3 nM

Q: Which IC50 [1] does the source give for CC(C)c1n[nH]c2c(NCc3ccc(-c4cnccn4)cc3)nc(SCCO)nc12 [Compound 4.133, 5-(2-Hydroxy-1-ethyl)thio-3-isopropyl-7-[4-(pyrazin-2-yl)benzyl]amino-1(2)H-pyrazolo[4,3-d]pyrimidin] here?
A: 6 nM

Q: Which IC50 [1] does the source give for CC(C)c1[nH]nc2c(NCc3ccc(-n4cccn4)cc3)nc(SCCN(C)C)nc12 [Compound 4.95] here?
A: 43 nM

Q: Which results are given for CC(C)c1n[nH]c2c(NCc3ccc(-c4ccccn4)cc3)nc(SCC(O)CN3CCNCC3)nc12 (centres unmarked) [Compound 4.25, 5-[3-(1-Piperazinyl)-2-hydroxy-1-propyl]thio-3-isopropyl-7-[4-(2-pyridyl)benzyl]amino-1(2)H-pyrazolo[4,3-d]pyrimidine]?
A: GI50 [2]: 332 nM; GI50 [3]: 435 nM; GI50 [4]: 767 nM

Q: With CC(C)c1[nH]nc2c(NCc3ccc(-n4cccn4)cc3)nc(SCC(C)(C)N)nc12 [Compound 4.90, 5-(2-Amino-2-methyl-1-propyl)thio-3-isopropyl-7-[4-(pyrazol-1-yl)benzyl]amino-1(2)H-pyrazolo[4,3-d]pyrimidin] as the molecule, how does the IC50 [1] read?
A: 11 nM

Q: With CC(C)c1n[nH]c2c(NCc3ccc(-c4ccccn4)cc3)nc(SCCCN)nc12 [Compound 4.27, 5-(3-Amino-1-propyl)thio-3-isopropyl-7-[4-(2-pyridyl)benzyl]amino-1(2)H-pyrazolo[4,3-d]pyrimidine] as the molecule, how does the GI50 [2] read?
A: 120 nM

Q: What about the GI50 [3] of the same molecule?
A: 151 nM

Q: And the GI50 [4]?
A: 156 nM

Q: How did the GI50 [2] turn out when CC(C)c1n[nH]c2c(NCc3ccc(-c4ccccn4)cc3)nc(SCCCO)nc12 [Compound 4.8, 5-(3-Hydroxy-1-propyl)thio-3-isopropyl-7-[4-(2-pyridyl)benzyl]amino-1(2)H-pyrazolo[4,3-d]pyrimidine] was run?
A: 109 nM

Q: And the GI50 [3]?
A: 102 nM

Q: What about the GI50 [4] of the same molecule?
A: 89 nM

Q: Which GI50 [2] does the source give for CC(C)c1n[nH]c2c(NCc3ccc(-c4ccccn4)cc3)nc(SCC(O)CN)nc12 (racemic) [Compound 4.23, 5-(R/S)-(3-Amino-2-hydroxy-1-propyl)thio-3-isopropyl-7-[4-(2-pyridyl)benzyl]amino-1(2)H-pyrazolo[4,3-d]pyrimidine] here?
A: 55 nM

Q: And the GI50 [3]?
A: 55 nM

Q: And the GI50 [4]?
A: 64 nM

Q: CC(C)c1n[nH]c2c(NCc3ccc(-c4ccccn4)cc3)nc(SC(CO)C(C)C)nc12 (centres unmarked) [Compound 4.21, 5-(1-Hydroxy-3-methyl-2-butyl)thio-3-isopropyl-7-[4-(2-pyridyl)benzyl]amino-1(2)H-pyrazolo[4,3-d]pyrimidine] was tested. Which GI50 [2] did it give?
A: 980 nM

Q: What about the GI50 [3] of the same molecule?
A: 1000 nM

Q: What about the GI50 [4] of the same molecule?
A: 1310 nM

Q: Which results are given for CC(C)c1n[nH]c2c(NCc3ccc(-c4ccccn4)cc3)nc(SCCO)nc12 [Compound 4.1, 5-(2-Hydroxy-1-ethyl)thio-3-isopropyl-7-[4-(2-pyridyl)benzyl]amino-1(2)H-pyrazolo[4,3-d]pyrimidine]?
A: GI50 [2]: 48 nM; GI50 [3]: 50 nM; GI50 [4]: 40 nM

Q: CC(C)c1n[nH]c2c(NCc3ccc(-c4ccccn4)cc3)nc(SC3CCCCC3O)nc12 (centres unmarked) [Compound 4.14, 5-(2-Hydroxycyclohexyl1-yl)thio-3-isopropyl-7-[4-(2-pyridyl)benzyl]amino-1(2)H-pyrazolo[4,3-d]pyrimidine] was tested. Which GI50 [2] did it give?
A: 636 nM

Q: And the GI50 [3]?
A: 680 nM

Q: And the GI50 [4]?
A: 530 nM

Q: With CC(C)c1n[nH]c2c(NCc3ccc(-c4ccccn4)cc3)nc(SCC(O)C(F)(F)F)nc12 (centres unmarked) [Compound 4.32, 5-(3,3,3-Trifluoro-2-hydroxy-1-propyl)thio-3-isopropyl-7-[4-(2-pyridyl)benzyl]amino-1(2)H-pyrazolo[4,3-d]pyrimidine] as the molecule, how does the GI50 [2] read?
A: 690 nM

Q: And the GI50 [3]?
A: 585 nM

Q: What about the GI50 [4] of the same molecule?
A: 641 nM

Q: Which GI50 [2] does the source give for C=CCSc1nc(NCc2ccc(-c3ccccn3)cc2)c2[nH]nc(C(C)C)c2n1 [Compound 4.2, 5-(Prop-2-en-1-yl)thio-3-isopropyl-7-[4-(2-pyridyl)benzyl]amino-1(2)H-pyrazolo[4,3-d]pyrimidine] here?
A: 1000 nM

Q: What about the GI50 [3] of the same molecule?
A: 858 nM

Q: And the GI50 [4]?
A: 923 nM

Q: How did the GI50 [2] turn out when CC(C)c1n[nH]c2c(NCc3ccc(-c4ccccn4)cc3)nc(SC3CCCC3O)nc12 (centres unmarked) [Compound 4.16, 5-(2-Hydroxycyclopentyl)thio-3-isopropyl-7-[4-(2-pyridyl)benzyl]amino-1(2)H-pyrazolo[4,3-d]pyrimidine] was run?
A: 567 nM

Q: And the GI50 [3]?
A: 373 nM

Q: What about the GI50 [4] of the same molecule?
A: 450 nM

Q: With CCC(O)CSc1nc(NCc2ccc(-c3ccccn3)cc2)c2[nH]nc(C(C)C)c2n1 (centres unmarked) [Compound 4.15, 5-(2-Hydroxy-1-butyl)thio-3-isopropyl-7-[4-(2-pyridyl)benzyl]amino-1(2)H-pyrazolo[4,3-d]pyrimidine] as the molecule, how does the GI50 [2] read?
A: 273 nM

Q: And the GI50 [3]?
A: 280 nM

Q: What about the GI50 [4] of the same molecule?
A: 427 nM

Q: What does the source list for CC(C)c1n[nH]c2c(NCc3ccc(-c4ccccn4)cc3)nc(SCCC(N)=O)nc12 [Compound 4.6, 5-(2-Carbamoyl-1-ethyl)thio-3-isopropyl-7-[4-(2-pyridyl)benzyl]amino-1(2)H-pyrazolo[4,3-d]pyrimidine]?
A: GI50 [2]: 120 nM; GI50 [3]: 84 nM; GI50 [4]: 81 nM

Q: With CC(C)c1n[nH]c2c(NCc3ccc(-c4ccccn4)cc3)nc(SCCn3ccnc3)nc12 [Compound 4.26, 5-[2-(1-Imidazolyl)-1-ethyl]thio-3-isopropyl-7-[4-(2-pyridyl)benzyl]amino-1(2)H-pyrazolo[4,3-d]pyrimidine] as the molecule, how does the GI50 [2] read?
A: 155 nM

Q: What about the GI50 [3] of the same molecule?
A: 145 nM

Q: And the GI50 [4]?
A: 135 nM

Q: With CC(C)c1n[nH]c2c(NCc3ccc(-c4ccccn4)cc3)nc(SC3CCCCC3N)nc12 (centres unmarked) [Compound 4.31, 5-(2-Aminocyclohexyl)thio-3-isopropyl-7-[4-(2-pyridyl)benzyl]amino-1(2)H-pyrazolo[4,3-d]pyrimidine] as the molecule, how does the GI50 [2] read?
A: 139 nM

Q: And the GI50 [3]?
A: 136 nM

Q: And the GI50 [4]?
A: 157 nM

Q: How did the GI50 [2] turn out when COCSc1nc(NCc2ccc(-c3ccccn3)cc2)c2[nH]nc(C(C)C)c2n1 [Compound 4.33, 5-(Methoxymethyl)thio-3-isopropyl-7-[4-(2-pyridyl)benzyl]amino-1(2)H-pyrazolo[4,3-d]pyrimidine] was run?
A: 340 nM

Q: What about the GI50 [3] of the same molecule?
A: 285 nM

Q: What about the GI50 [4] of the same molecule?
A: 243 nM

Q: What does the source list for CC(C)c1n[nH]c2c(NCc3ccc(-c4ccccn4)cc3)nc(SCC(N)CN)nc12 (centres unmarked) [Compound 4.29, 5-(2,3-Diamino-1-propyl)thio-3-isopropyl-7-[4-(2-pyridyl)benzyl]amino-1(2)H-pyrazolo[4,3-d]pyrimidine]?
A: GI50 [2]: 480 nM; GI50 [3]: 780 nM; GI50 [4]: 770 nM

Q: What does the source list for CC(C)c1n[nH]c2c(NCc3ccc(-c4ccccn4)cc3)nc(SCC(O)CO)nc12 (centres unmarked) [Compound 4.18, 5-(2,3-Dihydroxy-1-propyl)thio-3-isopropyl-7-[4-(2-pyridyl)benzyl]amino-1(2)H-pyrazolo[4,3-d]pyrimidine]?
A: GI50 [2]: 21 nM; GI50 [3]: 22 nM; GI50 [4]: 10 nM

Q: Which GI50 [2] does the source give for CNCCSc1nc(NCc2ccc(-c3ccccn3)cc2)c2[nH]nc(C(C)C)c2n1 [Compound 4.34, 5-(3-Methylamino-1-ethyl)thio-3-isopropyl-7-[4-(2-pyridyl)benzyl]amino-1(2)H-pyrazolo[4,3-d]pyrimidine] here?
A: 56 nM

Q: And the GI50 [3]?
A: 92 nM

Q: What about the GI50 [4] of the same molecule?
A: 40 nM

From patent US11186583B2, “5-alkylthio-7-[(4-arylbenzyl)amino]-1(2)H-pyrazolo[4,3-d]pyrimidines for treatment of lymphoma” (UNIVERZITA PALACKEHO V OLOMOUCI, priority 2018, dated 2021)
